The values that follow come from ChEMBL document CHEMBL4052759, “Discovery of DS79182026: A potent orally active hepcidin production inhibitor” (Bioorg Med Chem Lett, 2017).

In general, inhibition refers to the relative decrease from the control value, in per cent.

Assay [1] has as its target T1, Aurora kinase A (Homo sapiens) (UniProt O14965).
T1 sequence (whole entry): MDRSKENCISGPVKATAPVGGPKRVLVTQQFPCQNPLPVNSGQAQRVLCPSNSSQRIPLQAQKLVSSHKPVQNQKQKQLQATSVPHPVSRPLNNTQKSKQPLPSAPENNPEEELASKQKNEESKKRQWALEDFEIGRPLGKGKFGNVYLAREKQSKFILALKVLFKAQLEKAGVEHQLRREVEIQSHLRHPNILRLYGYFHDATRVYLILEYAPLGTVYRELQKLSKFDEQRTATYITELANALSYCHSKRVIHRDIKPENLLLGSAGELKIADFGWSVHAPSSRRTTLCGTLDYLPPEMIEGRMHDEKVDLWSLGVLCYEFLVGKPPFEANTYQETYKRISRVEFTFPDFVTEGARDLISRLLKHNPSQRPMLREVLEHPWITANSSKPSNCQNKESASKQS
Briefly: Inhibition of AurA (unknown origin) at 0.078 uM relative to control.

Assay [2] has as its target AMP-activated protein kinase, AMPK (Homo sapiens) (UniProt P54646+O43741+P54619+Q9UGJ0+Q9Y478+Q13131+Q9UGI9). Briefly: Inhibition of AMPK (unknown origin) at 0.078 uM relative to control.
In assay [3] the target is T2, Protein kinase C zeta type (Homo sapiens) (UniProt Q05513).
T2 sequence (whole entry): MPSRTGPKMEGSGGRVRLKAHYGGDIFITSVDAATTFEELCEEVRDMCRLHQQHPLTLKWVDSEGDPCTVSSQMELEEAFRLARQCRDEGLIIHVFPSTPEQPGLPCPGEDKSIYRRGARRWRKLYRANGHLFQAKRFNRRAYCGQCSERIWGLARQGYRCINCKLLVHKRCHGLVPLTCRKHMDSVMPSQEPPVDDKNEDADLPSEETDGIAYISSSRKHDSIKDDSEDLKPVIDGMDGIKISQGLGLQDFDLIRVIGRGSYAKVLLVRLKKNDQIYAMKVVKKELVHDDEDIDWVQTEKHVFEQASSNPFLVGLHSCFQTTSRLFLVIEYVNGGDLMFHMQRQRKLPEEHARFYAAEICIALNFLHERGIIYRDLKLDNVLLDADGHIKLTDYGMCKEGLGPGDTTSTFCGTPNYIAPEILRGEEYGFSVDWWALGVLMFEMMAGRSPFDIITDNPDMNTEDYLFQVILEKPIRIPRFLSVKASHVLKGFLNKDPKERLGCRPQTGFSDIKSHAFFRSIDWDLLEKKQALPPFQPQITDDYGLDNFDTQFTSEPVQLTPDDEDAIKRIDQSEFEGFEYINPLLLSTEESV
Briefly: Inhibition of PKC-zeta (unknown origin) at 0.078 uM relative to control.

Assay [4] has as its target Protein kinase C beta type (Homo sapiens) (UniProt P05771). The experiment in a line: Inhibition of PKC-beta2 (unknown origin) at 0.078 uM relative to control.
For assay [5], the target named is Vascular endothelial growth factor receptor 1 (Homo sapiens) (UniProt P17948). The experiment in a line: Inhibition of FLT1 (unknown origin) at 0.49 uM relative to control.
In assay [6] the target is Protein kinase C delta type (Homo sapiens) (UniProt Q05655). Briefly: Inhibition of PKC-delta (unknown origin) at 0.49 uM relative to control.
For assay [7], the target named is Tyrosine-protein kinase Fgr (Homo sapiens) (UniProt P09769). Briefly: Inhibition of FGR (unknown origin) at 0.49 uM relative to control.
The target in assay [8] is Serine/threonine-protein kinase Sgk3 (Homo sapiens) (UniProt Q96BR1). Briefly: Inhibition of SGK3 (unknown origin) at 0.49 uM relative to control.
The target of assay [9] is CDK4/Cyclin D3 (Homo sapiens) (UniProt P11802+P30281). Briefly: Inhibition of CDK4/CyclinD3 (unknown origin) at 0.49 uM relative to control. Type of assay: protein-complex assay.
Assay [10] addresses Calcium/calmodulin-dependent protein kinase type 1 (Homo sapiens) (UniProt Q14012). The experiment in a line: Inhibition of CaMK1a (unknown origin) at 0.49 uM relative to control.
Assay [11] deals with Misshapen-like kinase 1 (Homo sapiens) (UniProt Q8N4C8). The experiment in a line: Inhibition of MINK (unknown origin) at 0.49 uM relative to control.
For assay [12], the target named is Rho-associated protein kinase 1 (Homo sapiens) (UniProt Q13464). The experiment in a line: Inhibition of ROCK1 (unknown origin) at 0.49 uM relative to control.
The test system of assay [13] is Proto-oncogene tyrosine-protein kinase receptor Ret (Homo sapiens), P07949 [V804L]. The experiment in a line: Inhibition of Ret V804L mutant (unknown origin) at 0.49 uM relative to control.
Assay [14] has as its target T1, Aurora kinase A (Homo sapiens). The experiment in a line: Inhibition of AurA (unknown origin) at 0.49 uM relative to control.
Assay [15] addresses Fibroblast growth factor receptor 4 (Homo sapiens) (UniProt P22455). The experiment in a line: Inhibition of FGFR4 (unknown origin) at 0.45 uM relative to control.
Assay [16] addresses Dual specificity protein kinase CLK3 (Homo sapiens) (UniProt P49761). The experiment in a line: Inhibition of CLK3 (unknown origin) at 0.45 uM relative to control.
Assay [17] relates to Fibroblast growth factor receptor 1 (Homo sapiens), P11362 [V561M]. The experiment in a line: Inhibition of FGFR1 V561M mutant (unknown origin) at 0.45 uM relative to control.
The subject of assay [18] is Hepatocyte growth factor receptor (Homo sapiens), P08581 [M1250T]. The experiment in a line: Inhibition of MET M1250T mutant (unknown origin) at 0.45 uM relative to control.
The target of assay [19] is Ephrin type-A receptor 5 (Homo sapiens) (UniProt P54756). Briefly: Inhibition of EPHA5 (unknown origin) at 0.45 uM relative to control.
The target in assay [20] is Insulin receptor (Homo sapiens) (UniProt P06213). The experiment in a line: Inhibition of INSR (unknown origin) at 0.45 uM relative to control.
Assay [21] addresses Calcium/calmodulin-dependent protein kinase type 1D (Homo sapiens) (UniProt Q8IU85). Briefly: Inhibition of CamK1d (unknown origin) at 0.45 uM relative to control.
Assay [22] concerns the target Dual specificity tyrosine-phosphorylation-regulated kinase 1B (Homo sapiens) (UniProt Q9Y463). Briefly: Inhibition of DYRK1B (unknown origin) at 0.45 uM relative to control.
Assay [23] has as its system Fibroblast growth factor receptor 2 (Homo sapiens), P21802 [N549H]. Briefly: Inhibition of FGFR2 N549H mutant (unknown origin) at 0.45 uM.
The target of assay [24] is Tyrosine-protein kinase SYK (Homo sapiens) (UniProt P43405). Briefly: Inhibition of SYK (unknown origin) at 0.45 uM relative to control.
The target of assay [25] is NUAK family SNF1-like kinase 1 (Homo sapiens) (UniProt O60285). The experiment in a line: Inhibition of NuaK1 (unknown origin) at 0.45 uM relative to control.
In assay [26] the target is Testis-specific serine/threonine-protein kinase 2 (Homo sapiens) (UniProt Q96PF2). Briefly: Inhibition of TSSK2 (unknown origin) at 0.45 uM relative to control.
The target in assay [27] is SRSF protein kinase 2 (Homo sapiens) (UniProt P78362). The experiment in a line: Inhibition of SRPK2 (unknown origin) at 0.45 uM relative to control.

`COC(=O)Nc1noc2cc(-c3c(-c4ccccn4)n[nH]c3C)ccc12`: the inhibition in [1] is -1.7%; in [2], 2.7%; in [3], 2.7%; in assay [4] it was 8.7%.
Take `Cc1[nH]nc(C2CC2)c1-c1ccc2c(NC(=O)C3CC3)noc2c1`: the inhibition is -2.3% in assay [5]; 6.7% in assay [6]; -4% in assay [7]; 1.3% in assay [8]; -6.7% in [9]; 2.3% in [10]. The inhibition in assay [11] is -0.3%; in [12] it was 1%; in assay [13] it was -0.7%; in assay [14] it was 5.7%.
Regarding `Cc1n[nH]c(C)c1-c1ccc2c(NC(=O)c3ccc(N4CCN(C)CC4)cc3)n[nH]c2c1`, the inhibition in assay [15] amounted to 0.7%; in assay [16], 6.7%; in assay [17] it was 23.7%; in assay [18], 5%; in assay [19], 3%; in assay [20], 3%. The inhibition in [21] is 0.7%; in assay [22], 19.7%; in [23], 40%; in assay [24], 2.7%; in [25] it was 13%; in [26], -3%. Moreover, the inhibition in [27] worked out at 0.3%.
